# Experimental data: ChEMBL document CHEMBL5634109, “Synthesis and mechanism of action of new purine derivatives against triple negative breast cancer” (Eur J Med Chem, 2023)
# Calls of active or inactive are those of the source. The rule behind the calls is not given here.
# Columns and labels:
# HCT-116 = experiment: Antiproliferative activity against human HCT-116 cells assessed as reduction in cell viability measured for 48 hrs by MTT assay; assay type: functional, cell-based; settings: HCT-116, 48 h
# MDA-MB-231 [1] = experiment: Inhibition of cell migration human MDA-MB-231 cells at 0.01 to 0.4 uM incubated for 20 hrs by DAPI staining based analysis; assay type: functional; settings: dose 0.01-0.4 µM
# [2] = biological target: Dual specificity tyrosine-phosphorylation-regulated kinase 1A (Homo sapiens, UniProt Q13627); experiment: Inhibition of DYRK1A (unknown origin)
# MDA-MB-231 [3] = experiment: Induction of apoptosis in human MDA-MB-231 cells assessed as apoptotic cells at 4 uM incubated for 24 hrs by Annexin V-FITC/PI staining based analysis; assay type: functional
# A549 = experiment: Antiproliferative activity against human A549 cells assessed as reduction in cell viability measured for 48 hrs by MTT assay; assay type: functional, cell-based; settings: A549, 48 h
# [4] = biological target: Dual specificity protein kinase CLK4 (Homo sapiens, UniProt Q9HAZ1); experiment: Inhibition of CLK4 (unknown origin)
# Dual specificity protein kinase CLK4, sequence (Q9HAZ1 whole entry): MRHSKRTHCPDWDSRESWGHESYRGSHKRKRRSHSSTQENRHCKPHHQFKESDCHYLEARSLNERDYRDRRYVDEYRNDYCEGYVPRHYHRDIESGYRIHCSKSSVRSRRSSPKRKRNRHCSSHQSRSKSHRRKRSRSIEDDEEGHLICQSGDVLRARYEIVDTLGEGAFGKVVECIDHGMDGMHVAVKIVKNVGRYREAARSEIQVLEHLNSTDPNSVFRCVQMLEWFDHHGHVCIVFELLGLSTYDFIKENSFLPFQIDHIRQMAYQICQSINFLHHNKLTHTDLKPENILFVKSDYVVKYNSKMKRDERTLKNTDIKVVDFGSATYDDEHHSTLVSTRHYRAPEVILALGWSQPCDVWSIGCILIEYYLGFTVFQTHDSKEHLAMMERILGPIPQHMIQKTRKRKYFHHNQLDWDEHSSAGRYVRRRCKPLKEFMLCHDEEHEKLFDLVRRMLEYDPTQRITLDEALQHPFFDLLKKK
# MDA-MB-231 [5] = experiment: Antiproliferative activity against human MDA-MB-231 cells assessed as reduction in viability at 4 uM incubated for 7.5 hrs by MTT assay; assay type: functional
# MCF7 = experiment: Antiproliferative activity against human MCF7 cells assessed as reduction in cell viability measured for 48 hrs by MTT assay; assay type: functional, cell-based; settings: MCF7, 48 h
# [6] = Antiproliferative activity against human HUVEC cells assessed as reduction in cell viability measured for 48 hrs by MTT assay; assay type: toxicity, cell-based
# MDA-MB-231 [7] = experiment: Antitumor activity against human MDA-MB-231 cells xenografted in nude mouse assessed as inhibition of spleen metastasis in tumor at 10 mg/kg, ip measured for 3 days; assay type: functional, organism-based; settings: time 3.0 day
# MDA-MB-231 [8] = experiment: Antitumor activity against human MDA-MB-231 cells xenografted in nude mouse assessed as inhibition of proliferation of tumor cells at 10 mg/kg, ip measured for 3 days by H and E staining based analysis; assay type: functional, organism-based; settings: time 3.0 day
# MDA-MB-231 [9] = experiment: Induction of ROS generation in human MDA-MB-231 cells assessed as increase in intracellular ROS level at 40 uM incubated for 48 hrs by DCFH-DA staining based fluorescence microscopic analysis (Rvb=41.4%); assay type: functional
# MDA-MB-231 [10] = experiment: Antitumor activity against human MDA-MB-231 cells xenografted in nude mouse assessed as decrease in tumor size at 10 to 20 mg/kg, ip measured for 3 days; assay type: functional, organism-based; settings: dose 10-20 mg/kg, time 3.0 day
# MDA-MB-468 = experiment: Antiproliferative activity against human MDA-MB-468 cells assessed as reduction in cell viability measured for 48 hrs by MTT assay; assay type: functional, cell-based; settings: MDA-MB-468, 48 h
# MDA-MB-231 [11] = experiment: Antitumor activity against human MDA-MB-231 cells xenografted in nude mouse assessed as decrease in Ki67 expression at 10 mg/kg, ip measured for 3 days by immunohistochemistry analysis; assay type: functional, organism-based; settings: time 3.0 day
# MDA-MB-231 [12] = experiment: Antiproliferative activity against human MDA-MB-231 cells assessed as reduction in viability at 10 uM incubated for 7.5 hrs by MTT assay; assay type: functional
# Cell membrane = experiment: Induction of mitochondrial membrane potential loss in human MDA-MB-231 cells assessed as increase in fluorescence intensity at 40 uM incubated for 48 hrs by TMRM dye based flow cytometry analysis (reference value: 97.5%)
# MDA-MB-231 [13] = experiment: Induction of apoptosis in human MDA-MB-231 cells assessed as increase in number of cell debris at 4 uM incubated for 48 hrs; assay type: functional, cell-based
# MDA-MB-231 [14] = experiment: Antitumor activity against human MDA-MB-231 cells xenografted in nude mouse assessed as reduction in tumor growth at 10 to 20 mg/kg, ip measured for 3 days; assay type: functional, organism-based; settings: dose 10-20 mg/kg, time 3.0 day
# K562 = experiment: Antiproliferative activity against human K562 cells assessed as reduction in cell viability measured for 48 hrs by MTT assay; assay type: functional, cell-based; settings: K562, 48 h
# MDA-MB-231 [15] = experiment: Inhibition of cell migration human MDA-MB-231 cells assessed as migration distance at 25 uM incubated for 24 hrs by wound healing assay (reference value: 642.72 micrometer); assay type: functional
# MDA-MB-231 [16] = experiment: Induction of apoptosis in human MDA-MB-231 cells assessed as change in cell shape at 4 uM incubated for 12 to 24 hrs; assay type: functional, cell-based; settings: time 12-24 hrs
# MDA-MB-231 [17] = experiment: Induction of apoptosis in human MDA-MB-231 cells assessed as apoptotic cells at 4 uM incubated for 48 hrs by Annexin V-FITC/PI staining based analysis; assay type: functional
# HepG2 = experiment: Antiproliferative activity against human HepG2 cells assessed as reduction in cell viability measured for 48 hrs by MTT assay; assay type: functional, cell-based; settings: HepG2, 48 h
# HUVEC [18] = experiment: Antiangiogenesis activity in HUVEC cells at 62.5 nM incubated for 12 hrs by microscopic analysis; assay type: functional, cell-based; settings: Homo sapiens
# [19] = biological target: Dual specificity protein kinase CLK1 (Homo sapiens, UniProt P49759); experiment: Inhibition of CLK1 (unknown origin)
# Dual specificity protein kinase CLK1, sequence (P49759 whole entry): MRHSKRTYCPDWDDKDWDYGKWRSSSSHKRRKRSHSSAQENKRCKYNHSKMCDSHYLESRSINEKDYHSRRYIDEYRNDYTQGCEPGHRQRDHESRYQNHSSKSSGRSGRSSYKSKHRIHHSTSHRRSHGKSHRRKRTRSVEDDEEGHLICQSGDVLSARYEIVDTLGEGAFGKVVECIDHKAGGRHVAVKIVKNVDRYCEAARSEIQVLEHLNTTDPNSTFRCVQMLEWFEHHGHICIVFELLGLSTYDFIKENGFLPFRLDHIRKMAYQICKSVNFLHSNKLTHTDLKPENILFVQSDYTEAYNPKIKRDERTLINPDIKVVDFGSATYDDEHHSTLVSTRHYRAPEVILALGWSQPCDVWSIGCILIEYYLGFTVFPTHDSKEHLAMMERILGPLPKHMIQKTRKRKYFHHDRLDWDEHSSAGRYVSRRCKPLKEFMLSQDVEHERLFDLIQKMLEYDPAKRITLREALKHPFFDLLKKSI
# [20] = biological target: Cyclin-dependent kinase 7 (Homo sapiens, UniProt P50613); experiment: Inhibition of CDK7 (unknown origin)
# Cyclin-dependent kinase 7, sequence (P50613 whole entry): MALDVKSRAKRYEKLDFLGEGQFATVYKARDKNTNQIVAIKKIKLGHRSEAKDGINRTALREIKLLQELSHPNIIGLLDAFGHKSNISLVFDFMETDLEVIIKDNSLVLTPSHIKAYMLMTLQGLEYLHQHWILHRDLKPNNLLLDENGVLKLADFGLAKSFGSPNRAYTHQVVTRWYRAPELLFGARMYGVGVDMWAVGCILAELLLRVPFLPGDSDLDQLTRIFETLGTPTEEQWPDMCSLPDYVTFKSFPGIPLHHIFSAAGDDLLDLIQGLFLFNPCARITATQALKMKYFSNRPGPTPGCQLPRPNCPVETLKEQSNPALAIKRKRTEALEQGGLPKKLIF
# HUVEC [21] = experiment: Antiangiogenesis activity in HUVEC cells at 0.03 to 0.3 uM incubated for 12 hrs by microscopic analysis; assay type: functional, cell-based; settings: Homo sapiens, dose 0.03-0.3 µM
# MDA-MB-231 [22] = experiment: Induction of apoptosis in human MDA-MB-231 cells assessed as formation of apoptotic bodies at 4 uM incubated for 6 hrs; assay type: functional, cell-based
# [23] = Antiproliferative activity against human HEK293 cells assessed as reduction in cell viability measured for 48 hrs by MTT assay; assay type: toxicity, cell-based
# MDA-MB-231 [24] = experiment: Induction of apoptosis in human MDA-MB-231 cells assessed as apoptotic cells at 4 uM incubated for 12 hrs by Annexin V-FITC/PI staining based analysis; assay type: functional
# PC-3 = experiment: Antiproliferative activity against human PC-3 cells assessed as reduction in cell viability measured for 48 hrs by MTT assay; assay type: functional, cell-based; settings: PC-3, 48 h
# MGC-803 = experiment: Antiproliferative activity against human MGC-803 cells assessed as reduction in cell viability measured for 48 hrs by MTT assay; assay type: functional, cell-based; settings: MGC-803, 48 h
# MDA-MB-231 [25] = experiment: Induction of apoptosis in human MDA-MB-231 cells assessed as apoptotic cells at 40 uM incubated for 24 hrs by Annexin V-FITC/PI staining based analysis; assay type: functional
# [26] = biological target: Dual specificity protein kinase CLK2 (Homo sapiens, UniProt P49760); experiment: Inhibition of CLK2 (unknown origin)
# Dual specificity protein kinase CLK2, sequence (P49760 whole entry): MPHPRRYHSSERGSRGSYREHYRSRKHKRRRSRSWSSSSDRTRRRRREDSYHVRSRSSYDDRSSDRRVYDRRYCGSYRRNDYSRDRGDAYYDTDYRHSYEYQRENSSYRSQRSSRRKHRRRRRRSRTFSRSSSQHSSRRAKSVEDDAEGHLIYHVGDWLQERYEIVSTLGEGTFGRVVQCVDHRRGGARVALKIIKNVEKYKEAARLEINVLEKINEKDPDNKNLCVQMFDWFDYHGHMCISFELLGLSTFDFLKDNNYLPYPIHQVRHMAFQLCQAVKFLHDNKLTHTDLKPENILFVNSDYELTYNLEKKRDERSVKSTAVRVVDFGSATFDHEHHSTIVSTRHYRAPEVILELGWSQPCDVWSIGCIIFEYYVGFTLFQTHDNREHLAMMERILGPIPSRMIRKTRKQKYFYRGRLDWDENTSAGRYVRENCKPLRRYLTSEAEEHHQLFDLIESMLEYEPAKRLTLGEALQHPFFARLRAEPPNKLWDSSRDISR
# MDA-MB-231 [27] = experiment: Induction of apoptosis in human MDA-MB-231 cells assessed as apoptotic cells at 40 uM incubated for 12 hrs by Annexin V-FITC/PI staining based analysis; assay type: functional
# MDA-MB-231 [28] = experiment: Inhibition of cell migration human MDA-MB-231 cells assessed as migration distance at 25 uM incubated for 48 hrs by wound healing assay (reference value: 642.72 micrometer); assay type: functional
# [29] = Hepatotoxicity in nude mouse at 10 mg/kg, ip measured for 3 days; assay type: toxicity, organism-based; settings: in vivo, 72 h, time 3 day
# [30] = biological target: Casein kinase I isoform epsilon (Homo sapiens, UniProt P49674); experiment: Inhibition of CK1epsilon (unknown origin)
# Casein kinase I isoform epsilon, sequence (P49674 whole entry, canonical isoform): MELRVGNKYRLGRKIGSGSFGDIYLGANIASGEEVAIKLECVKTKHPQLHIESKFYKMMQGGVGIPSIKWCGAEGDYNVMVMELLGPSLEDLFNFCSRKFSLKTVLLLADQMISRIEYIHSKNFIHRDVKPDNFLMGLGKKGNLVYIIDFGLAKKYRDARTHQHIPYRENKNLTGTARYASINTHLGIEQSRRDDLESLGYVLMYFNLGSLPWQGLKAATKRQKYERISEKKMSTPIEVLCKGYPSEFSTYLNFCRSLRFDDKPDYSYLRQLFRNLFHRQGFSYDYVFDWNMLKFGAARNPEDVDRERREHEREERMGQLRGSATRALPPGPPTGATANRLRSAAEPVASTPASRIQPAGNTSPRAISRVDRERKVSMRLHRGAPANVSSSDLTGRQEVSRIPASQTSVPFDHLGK
# MDA-MB-231 [31] = experiment: Induction of apoptosis in human MDA-MB-231 cells assessed as increase in number of apoptotic bodies at 4 uM incubated for 48 hrs; assay type: functional, cell-based
# MDA-MB-231 [32] = experiment: Antitumor activity against human MDA-MB-231 cells xenografted in nude mouse assessed as decrease in CD31 expression at 10 mg/kg, ip measured for 3 days by immunohistochemistry analysis; assay type: functional, organism-based; settings: time 3.0 day
# HT-29 = experiment: Antiproliferative activity against human HT-29 cells assessed as reduction in cell viability measured for 48 hrs by MTT assay; assay type: functional, cell-based; settings: HT-29, 48 h
# MDA-MB-231 [33] = experiment: Induction of apoptosis in human MDA-MB-231 cells assessed as apoptotic cells at 40 uM incubated for 48 hrs by Annexin V-FITC/PI staining based analysis; assay type: functional
# MDA-MB-231 [34] = experiment: Antitumor activity against human MDA-MB-231 cells xenografted in nude mouse assessed as inhibition of lung metastasis in tumor at 10 mg/kg, ip measured for 3 days; assay type: functional, organism-based; settings: time 3.0 day
# NCI-H1299 = experiment: Antiproliferative activity against human NCI-H1299 cells assessed as reduction in cell viability measured for 48 hrs by MTT assay; assay type: functional, cell-based; settings: NCI-H1299, 48 h
# MDA-MB-231 [35] = experiment: Antiproliferative activity against human MDA-MB-231 cells assessed as reduction in cell viability measured for 48 hrs by MTT assay; assay type: functional, cell-based; settings: MDA-MB-231, 48 h
# [36] = Toxicity in nude mouse xenografted with human MDA-MB-231 cells assessed as change in body weight at 10 to 20 mg/kg, ip measured for 3 days; assay type: organism-based; settings: in vivo, 72 h, dose 10-20 mg/kg, time 3 day
structure (smiles),measurement,setting,value
OCCN1CCC(C2CCN(c3nc(NCc4cccc(F)c4F)c4ncn(C5CCCC5)c4n3)CC2)CC1,IC50,HCT-116,2790 nM
same,inhibition,MDA-MB-231 [1],Active
same,IC50,[2],122 nM
same,Activity,MDA-MB-231 [3],13%
same,IC50,A549,370 nM
same,IC50,[4],73 nM
same,Activity,MDA-MB-231 [5],~100%
same,IC50,MCF7,2670 nM
same,IC50 at 48 h,[6],6.18 µM
same,Activity,MDA-MB-231 [7],Active
same,Activity,MDA-MB-231 [8],Active
same,Activity,MDA-MB-231 [9],48.6%
same,Activity,MDA-MB-231 [10],Active
same,IC50,MDA-MB-468,3.69 µM
same,Activity,MDA-MB-231 [11],Active
same,Activity,MDA-MB-231 [12],~100%
same,Activity,Cell membrane,80.9%
same,Activity,MDA-MB-231 [13],Active
same,Activity,MDA-MB-231 [14],Active
same,IC50,K562,240 nM
same,Activity,MDA-MB-231 [15],24.88 um
same,Activity,MDA-MB-231 [16],Active
same,Activity,MDA-MB-231 [17],54.9%
same,IC50,HepG2,250 nM
same,Activity,HUVEC [18],Active
same,IC50,[19],278 nM
same,IC50,[20],390 nM
same,Activity,HUVEC [21],Active
same,Activity,MDA-MB-231 [22],Active
same,IC50 at 48 h,[23],4.28 µM
same,Activity,MDA-MB-231 [24],5.6%
same,IC50,PC-3,3.92 µM
same,IC50,MGC-803,3.52 µM
same,Activity,MDA-MB-231 [25],>95%
same,IC50,[26],23 nM
same,Activity,MDA-MB-231 [27],>95%
same,Activity,MDA-MB-231 [28],53.38 um
same,Activity,[29],Non-Toxic
same,IC50,[30],38 nM
same,Activity,MDA-MB-231 [31],Active
same,Activity,MDA-MB-231 [32],Active
same,IC50,HT-29,3.37 µM
same,Activity,MDA-MB-231 [33],>95%
same,Activity,MDA-MB-231 [34],Active
same,IC50,NCI-H1299,4.05 µM
same,IC50,MDA-MB-231 [35],3.55 µM
same,Activity,[36],Non-Toxic
